From article PMC5369539 (Chemical Science, 2016)
Bridge positions count the residues as written; N and C are the ends. Square brackets hold non-standard residues; d marks the D form. Peptide text beside a SMILES is read from it. * marks the point of attachment. X1 = CC[C@H](C)CCCCC(=O)*; Dab = NCC[C@H](N)C(=O)O

Experiments:
S. aureus (ATCC6538) = assay: Minimum inhibitory concentration; assay type: cell-based; details: text summary of Table S1
E. faecalis (OG1X) = assay: Minimum inhibitory concentration; assay type: cell-based; details: text summary of Table S1

In the case of `CCCCCCCCCC(=O)N[C@@H](Cc1c[nH]c2ccccc12)C(=O)N[C@H](CC(N)=O)C(=O)N[C@@H](CC(=O)O)C(=O)N[C@@H]1C(=O)NCC(=O)N[C@@H](CCCN)C(=O)N[C@@H](CC(=O)O)C(=O)N[C@H](C)C(=O)N[C@@H](CC(=O)O)C(=O)NCC(=O)N[C@H](CO)C(=O)N[C@@H]([C@H](C)CC(=O)O)C(=O)N[C@@H](CC(=O)c2ccccc2N)C(=O)O[C@@H]1C` [daptomycin], the “activity against S. aureus (in words)” value (S. aureus (ATCC6538)) is reported as “appreciable activity” and the “activity against E. faecalis (in words)” value (E. faecalis (OG1X)) is reported as “tolerant”.
`CC[C@H](C)CCCCC(=O)N[C@@H](CCN)C(=O)N[C@H](C(=O)N[C@@H](CCN)C(=O)N[C@H]1CCNC(=O)[C@H]([C@@H](C)O)NC(=O)[C@H](CCN)NC(=O)[C@H](CCN)NC(=O)[C@H](CC(C)C)NC(=O)[C@@H](Cc2ccccc2)NC(=O)[C@H](CCN)NC1=O)[C@@H](C)O` [polymyxin B] (X1-[Dab]T[Dab][Dab][Dab][dF]L[Dab][Dab]T; lactam 4-C (inferred); N-terminus assumed) was tested, and the “activity against E. faecalis (in words)” value (E. faecalis (OG1X)) was “tolerant”.
